According to patent publication US20250197794A1, “MEMBRANE RUPTURE COMPOSITIONS AND METHODS OF MAKING AND USING SAME” (priority 2020, published 2025):

Tests used:
[1] = reference [6]; cited from earlier work
SF9 cells = assay: Cell lysis, percent cell viability by Vi-Cell (trypan blue exclusion); assay type: cell-based, insect; conditions: SF9, 1 hour incubation
Procedure: The cell rupture solution was tested both for HEK 293 and SF9 cell lines. The cell concentration was >5×10^6 cells/ml. A cell harvest in cell culture media was spiked with the concentrated stock of cell rupture solution to reach a final cell rupture solution concentration ranging from 0% to 0.5% and was incubated for about 5 minutes to about 1 hour at 15° C. to 30° C. The concentration of the stock solution could be 1-500-fold higher than the target concentration. After the incubation period, cell viability of cells was analyzed by a Vi-Cell reader.
SF9 cells for the study were grown in SF-900 II SFM (Invitrogen/Gibco 10902) media in a non-vented non-baffled shake flask. The incubator was set at 27° C. and 125 rpm.
For the cell lysis study, 2 mL of cells were added to each of 10×15 mL tubes under a sterile biosafety cabinet. Each tube was spiked with 0% (control, no detergent), 0.0025%, 0.005%, 0.0075%, 0.01%, 0.02%, 0.05%, 0.1%, 0.25%, and 0.5% of cell rupture solution using a concentrated stock. Cell counts and percent cell viability were determined at 15 min, 30 min, and 1 hour time points for each sample using the ViCell cell viability analyzer.
Cell viability was assessed by a Vi-Cell XR using trypan blue exclusion staining. […]

HEK 293 cells = conditions: HEK 293, 1 hour incubation

For Octoxynol-9 [Triton X-100], which “toxicity reported by research” value [1] is on record?
Its value is “acute oral toxicity, eye damage, skin irritation, and chronic aquatic toxicity”.

And the “detergent concentration at which cell lysis was complete” value (SF9 cells)?
The value was 0.05%.

And the “detergent concentration at which cell lysis was complete” value (HEK 293 cells)?
Its value is 0.05%.
